# Data taken from patent US5219741A, “Method of making L-proline using an N-acyl-L-protine acylase” (priority 1990, dated 1993).
# “And” between values parts separate entries of the source, which are not always exact repeats. Equal values may be shown once. “Also recorded” adds a separate entry of the source. Where a name gives a salt, the structure may show the parent alone. Read-outs that look alike come from different tables or passages of the source. Where a SMILES comes first, the peptide text is derived from it. The star is where a group is joined. Cbz = O=C(OCc1ccccc1)*
# Experiments:
# N-acyl-L-proline acylase [1] = assay: Substrate specificity: hydrolysis of N-acyl amino acids and proline derivatives; type: biochemical, Comamonas testosteroni DSM 5416; settings: for Relative Activity (%): proline derivatives; for Relative Activity (%) / Rel. activity (%): N-acetyl-L-proline = 100%
# Experimental: The activity of acylase was determined with various N-acetyl-L-amino acids and N-chloroacetyl-L-amino acids in a reaction batch with the following composition:
# The reaction temperature was 30° C. and the incubation time 15 minutes to 24 hours. 0.2 ml samples of the reaction batch in each instance were mixed at different times with 0.2 ml 10% (w/v) trichloroacetic acid and the denatured protein centrifuged off for 10 minutes at 11,000 rpms in a table centrifuge. The supernatant was diluted with a 0.1M Na citrate buffer pH 2.2 with 25% (v/v) 2.2-thiodiethanol and 0.1% (v/v) phenol 1:5 and 1:50 respectively. The amino acids released were quantitatively detected by an amino-acid analyzer LC 5001 of the firm Biotronic, Maintal, Federal Republic of Germany. In Table 16, the substrates marked with * and the corresponding products were quantified by means of HPLC.
# The activity of the acylase was determined with various proline derivatives as under a).
# N-acyl-L-proline acylase [2] = type: biochemical, Comamonas testosteroni DSM 5416
# Experimental: The enzymatic reaction was interrupted by pipetting 50 μl of the enzyme sample into 1.25 ml 100% acetic acid. Subsequently, 0.45 ml 0.1M tris-HCl buffer pH 7.0 and 1.25 ml ninhydrin reagent (3 g ninhydrin dissolved by heating in a mixture of 60 ml 100% acetic acid and 40 ml 6M phosphoric acid) were added. The ninhydrin reagent was freshly prepared daily. The test tubes were loosely closed with screw-on caps, incubated 30 minutes at 100° C. and subsequently cooled down in an ice bath.
# The L-proline, liberated by the enzymatic hydrolysis, forms a red dye with ninhydrin at 100° C. The absorption of the red dye was measured in a spectrophotometer at 480 nm relative to a control batch without crude extract (=substrate blank). The concentration of the L-proline produced was determined using a straight calibration line with L-proline in a range of 5 to 100 nmoles per 50 μl specimen. The enzyme activity was indicated in international units; thus, one unit (U) corresponded to an amount of 1 μmole L-proline produced per minute.
# The influence of various chemical agents as well as metal cations and anions on the reaction speed of the hydrolytic splitting of N-acetyl-L-proline was determined at 30° C. in a reaction batch with the following composition: […]
# The enzyme was pre-incubated for 10 minutes at 30° C. with the compound before the addition of substrate to start the reaction.
# The enzyme was pre-incubated for 10 minutes at 30° C. with the agent before the substrate was added to start the reaction.
# The enzyme was pre-incubated 10 minutes at 30° C. with the agent before the substrate was added to start the reaction. The concentration of the anions was 10 mM in each instance.
# [3] = chemical agent 1 mM, 10 min pre-incubation at 30° C., no agent = 100
# [4] = chemical agent 10 mM, 10 min pre-incubation at 30° C., no agent = 100
# [5] = 20 mM substrate 1.0 ml in 2.0 ml batch, 30° C., pH 7.0, amino-acid analyzer
# [6] = substrate concentration 50 mM, quantified by HPLC
smiles,measurement,setting,value
CCCCC(=O)N1CCC[C@H]1C(=O)O [N-valeryl-L-proline],Hydrolysis by the acylase (in words),N-acyl-L-proline acylase [1],hydrolyzes
same,Relative Activity (%),"N-acyl-L-proline acylase [1]; 30° C., pH 7.0",15%
O=C(O)CI [Iodoacetate],Activity (%),N-acyl-L-proline acylase [2],97% and 77%
O=C([O-])c1cc[c]([Hg][OH])cc1 [4-hydroxymercuribenzoate],Activity (%),N-acyl-L-proline acylase [2]; [3],88%
same,Activity (%),N-acyl-L-proline acylase [2]; [4],41%
same,Influence on the acylase activity (in words),N-acyl-L-proline acylase [2]; native enzyme,inhibiting action; also recorded: significantly inhibit
CC(=O)N[C@@H](CS)C(=O)O [Ac--L--Cys],Rel. activity (%),N-acyl-L-proline acylase [1]; [5],0%
O=P([O-])(O)O.[Na+] [NaH2 PO4],Inhibiting mechanism,N-acyl-L-proline acylase [2],non-competitive
same,Activity (%),"N-acyl-L-proline acylase [2]; anion 10 mM, no agent = 100",6%
same,Influence on the acylase activity (in words),"N-acyl-L-proline acylase [2]; native enzyme, listed as PO4^3-",inhibiting action
same,Influence on the acylase activity (in words),"N-acyl-L-proline acylase [2]; native enzyme, listed as Phosphate",inhibited
same,Influence on the acylase activity (in words),"N-acyl-L-proline acylase [2]; native enzyme, listed as phosphate",sharply inhibited
OCCS [2-mercaptoethanol],Activity (%),"N-acyl-L-proline acylase [2]; chemical agent 14 mM, 10 min pre-incubation at 30° C.",14%
same,Influence on the acylase activity (in words),N-acyl-L-proline acylase [2]; native enzyme,inhibiting action; also recorded: significantly inhibit
N[C@@H](CCC(=O)N[C@@H](CS)C(=O)NCC(=O)O)C(=O)O [Glutathione],Activity (%),N-acyl-L-proline acylase [2],116% and 135%
O=C([O-])c1cc[c]([Hg][Cl])cc1 [4-chloromercuribenzoate],Activity (%),N-acyl-L-proline acylase [2]; [3],85%
same,Activity (%),N-acyl-L-proline acylase [2]; [4],48%
same,Influence on the acylase activity (in words),N-acyl-L-proline acylase [2]; native enzyme,inhibiting action; also recorded: significantly inhibit
O=C(O)[C@@H]1CCCN1C(=O)OCc1ccccc1 [Z--L--Pro--OH],Relative Activity (%),"N-acyl-L-proline acylase [1]; 30° C., pH 7.0",0%
"O=C(O)C1SCCN1C(=O)CCl (racemic) [ClAc--D,L-thiazolidine-2-carboxylic acid, N-chloroacetyl-DL-thiazolidine-2-carboxylic acid]",Hydrolysis by the acylase (in words),N-acyl-L-proline acylase [1],hydrolyzed especially well
same,Rel. activity (%),N-acyl-L-proline acylase [1]; [6],202%
[Cl-].[Na+] [NaCl],Activity (%),N-acyl-L-proline acylase [2],99%
CC(=O)N1CC(O)C[C@H]1C(=O)O (stereo partly drawn) [N-acetyl-L-4-hydroxyproline],Hydrolysis by the acylase (in words),N-acyl-L-proline acylase [1],hydrolyzes
same,Relative Activity (%),"N-acyl-L-proline acylase [1]; 30° C., pH 7.0",10%
COC(=O)[C@@H]1CCCN1C(C)=O [N-acetyl-L-proline methyl ester],Hydrolysis by the acylase (in words),N-acyl-L-proline acylase [1],not hydrolyzed
same,Relative Activity (%),"N-acyl-L-proline acylase [1]; 30° C., pH 7.0",0%
CC(=O)N[C@H](C(=O)O)C(C)C [Ac--L--Val],Rel. activity (%),N-acyl-L-proline acylase [1]; [5],0.2%
CCC(=O)N1CCC[C@H]1C(=O)O [N-propionyl-L-proline],Hydrolysis by the acylase (in words),N-acyl-L-proline acylase [1],hydrolyzes
same,Relative Activity (%),"N-acyl-L-proline acylase [1]; 30° C., pH 7.0",29%
O=[N+]([O-])[O-].[K+] [KNO3],Activity (%),"N-acyl-L-proline acylase [2]; anion 10 mM, no agent = 100",96%
O=N[O-].[Na+] [NaNO2],Activity (%),N-acyl-L-proline acylase [2],71%
same,Influence on the acylase activity (in words),N-acyl-L-proline acylase [2],slightly inhibited
O=C(NCC(=O)N1CCC[C@H]1C(=O)O)OCc1ccccc1 [N-benzyloxycarbonyl-glycyl-L-proline] (Cbz-Gly-Pro-OH),Hydrolysis by the acylase (in words),N-acyl-L-proline acylase [1],hydrolyzes
same,Relative Activity (%),"N-acyl-L-proline acylase [1]; 30° C., pH 7.0",11%
"c1ccc(-c2ccccn2)nc1 [2,2-bipyridine]",Activity (%),N-acyl-L-proline acylase [2]; [3],102%
same,Activity (%),N-acyl-L-proline acylase [2]; [4],66%
O=S(=O)(F)Cc1ccccc1 [PMSF],Activity (%),"N-acyl-L-proline acylase [2]; chemical agent 0.1 mM, 10 min pre-incubation at 30° C.",104%
same,Activity (%),N-acyl-L-proline acylase [2]; [3],130%
O=C(O)CNC(=O)[C@@H]1CCCN1 [H--L--Pro--Gly--OH] (H-Pro-Gly-OH),Relative Activity (%),"N-acyl-L-proline acylase [1]; 30° C., pH 7.0",0%
O=C(O)[C@@H]1CCCCN1C(=O)CCl [N-chloroacetyl-L-pipecolic acid],Hydrolysis by the acylase (in words),N-acyl-L-proline acylase [1],hydrolyzes
NNC(N)=O [Semicarbazide],Activity (%),N-acyl-L-proline acylase [2]; [3],109%
same,Activity (%),N-acyl-L-proline acylase [2]; [4],95%
NC(=O)CI [Iodoacetamide],Activity (%),N-acyl-L-proline acylase [2]; [3],104%
same,Activity (%),N-acyl-L-proline acylase [2]; [4],101%
O=C(O)[C@@H]1SCCN1C(=O)CCl [N-chloroacetyl-L-thiazolidine-2-carboxylic acid],Hydrolysis by the acylase (in words),N-acyl-L-proline acylase [1],hydrolyzes
NC(=O)[C@@H]1CCCN1 [H--L--Pro--NH2],Relative Activity (%),"N-acyl-L-proline acylase [1]; 30° C., pH 7.0",0%
C[C@H](NC(=O)[C@@H]1CCCN1C(=O)OCc1ccccc1)C(=O)O [Z--L--Pro--L--Ala--OH] (Cbz-Pro-Ala-OH),Relative Activity (%),"N-acyl-L-proline acylase [1]; 30° C., pH 7.0",0%
NC(=O)[C@@H]1CCCN1C(=O)OCc1ccccc1 [Z--L--Pro--NH2],Relative Activity (%),"N-acyl-L-proline acylase [1]; 30° C., pH 7.0",0%
O=C(O)[C@@H]1CCCN1C(=O)CCl [N-chloroacetyl-L-proline],Hydrolysis by the acylase (in words),N-acyl-L-proline acylase [1],hydrolyzes; also recorded: hydrolyzed especially well
same,"Hydrolysis rate, times more rapid than N-acetyl-L-proline",N-acyl-L-proline acylase [1],about 3.6 times
same,Rel. activity (%),N-acyl-L-proline acylase [1]; [5],362%
same,Relative Activity (%),"N-acyl-L-proline acylase [1]; 30° C., pH 7.0",362%
NCC(=O)N1CCC[C@H]1C(=O)O [glycyl-L-proline] (H-Gly-Pro-OH),Hydrolysis by the acylase (in words),N-acyl-L-proline acylase [1],hydrolyzes
same,Relative Activity (%),"N-acyl-L-proline acylase [1]; 30° C., pH 7.0",4%
CC(=O)N1CCC[C@H]1C(N)=O [N-acetyl-L-prolineamide],Hydrolysis by the acylase (in words),N-acyl-L-proline acylase [1],not hydrolyzed
same,Relative Activity (%),"N-acyl-L-proline acylase [1]; 30° C., pH 7.0",0%
CCCC(=O)N1CCC[C@H]1C(=O)O [N-butyryl-L-proline],Hydrolysis by the acylase (in words),N-acyl-L-proline acylase [1],hydrolyzes
same,Relative Activity (%),"N-acyl-L-proline acylase [1]; 30° C., pH 7.0",14%
"O=C(O)C1CCCCN1C(=O)CCl (racemic) [ClAc--D,L-pipecolic acid, N-chloroacetyl-D,L-pipecolic acid]",Hydrolysis by the acylase (in words),N-acyl-L-proline acylase [1],reacted at a distinctly lower speed
same,Rel. activity (%),N-acyl-L-proline acylase [1]; [6],16%
CCCCCC(=O)N1CCC[C@H]1C(=O)O [N-caproyl-L-proline],Hydrolysis by the acylase (in words),N-acyl-L-proline acylase [1],hydrolyzes
same,Relative Activity (%),"N-acyl-L-proline acylase [1]; 30° C., pH 7.0",9%
CC[C@H](C)[C@H](NC(=O)CCl)C(=O)O [ClAc--L--Ile],Rel. activity (%),N-acyl-L-proline acylase [1]; [5],0.5%
CC(=O)N[C@@H](Cc1ccc(O)cc1)C(=O)O [Ac--L--Tyr],Rel. activity (%),N-acyl-L-proline acylase [1]; [5],0%
C[C@H](N)C(=O)N1CCC[C@H]1C(=O)O [H--L Ala--L--Pro--OH] (H-Ala-Pro-OH),Relative Activity (%),"N-acyl-L-proline acylase [1]; 30° C., pH 7.0",0%
"O=C(CCl)NC1(C(=O)O)CCCCC1 [ClAc--D,L-1-aminocyclohexanoic acid]",Rel. activity (%),N-acyl-L-proline acylase [1]; [5],0%
O=CN1CCC[C@H]1C(=O)O [N-formyl-L-proline],Hydrolysis by the acylase (in words),N-acyl-L-proline acylase [1],hydrolyzes
same,Relative Activity (%),"N-acyl-L-proline acylase [1]; 30° C., pH 7.0",18%
O=C(O)[C@@H]1Cc2ccccc2N1C(=O)CCl [ClAc--L-indolin-2-carboxylic acid],Rel. activity (%),N-acyl-L-proline acylase [1]; quantified by HPLC,0%
O=C(O)[C@@H]1CSCN1C(=O)CCl [N-chloroacetyl-L-thiazolidine-4-carboxylic acid],Hydrolysis by the acylase (in words),N-acyl-L-proline acylase [1],hydrolyzes; also recorded: hydrolyzed especially well
same,Rel. activity (%),N-acyl-L-proline acylase [1]; [5],462%
CC(=O)N[C@@H](C)C(=O)N1CCC[C@H]1C(=O)O [Ac--L--Ala--L--Pro--OH] (Ac-Ala-Pro-OH),Relative Activity (%),"N-acyl-L-proline acylase [1]; 30° C., pH 7.0",0%
O=C(O)CC(O)(CC(=O)O)C(=O)O [Na citrate],Activity (%),N-acyl-L-proline acylase [2]; [3],102%
same,Activity (%),N-acyl-L-proline acylase [2]; [4],102%
O=C(O)CN(CCN(CC(=O)O)CC(=O)O)CC(=O)O [EDTA],Activity (%),N-acyl-L-proline acylase [2],101% and 99%
O[C@H](CS)[C@H](O)CS (racemic) [Dithiothreitol],Activity (%),N-acyl-L-proline acylase [2]; [3],129%
same,Activity (%),N-acyl-L-proline acylase [2]; [4],48%
CC(C)(C)OC(=O)N1CCC[C@H]1C(=O)O [Boc--L--Pro--OH],Relative Activity (%),"N-acyl-L-proline acylase [1]; 30° C., pH 7.0",0%
O=C(O)O [Na2 CO3],Activity (%),N-acyl-L-proline acylase [2],75%
same,Influence on the acylase activity (in words),N-acyl-L-proline acylase [2],slightly inhibited
"CC(=O)NC(CO)C(=O)O (racemic) [Ac--D,L--Ser]",Rel. activity (%),N-acyl-L-proline acylase [1]; [5],0.2%
O=S(=O)([O-])[O-].[Na+].[Na+] [Na2 SO4],Activity (%),"N-acyl-L-proline acylase [2]; anion 10 mM, no agent = 100",96%
O=C(O)[C@H]1CCCN1C(=O)OCc1ccccc1 [Z--D--Pro--OH],Relative Activity (%),"N-acyl-L-proline acylase [1]; 30° C., pH 7.0",0%
CC(=O)N1CC[C@H]1C(=O)O [Ac--L-azetidine-2-carboxylic acid],Rel. activity (%),N-acyl-L-proline acylase [1]; quantified by HPLC,0%
